Test results reported in article PMC4352280, “Bioactivity guided fractionation and hypolipidemic property of a novel HMG-CoA reductase inhibitor from Ficus virens Ait” (Lipids in Health and Disease, 2015).
pIC50: −log10 of the molar value.

Molecular target: T1, HMG-CoA reductase (Homo sapiens, UniProt P04035)
T1 construct: gene HMGCR; catalytic domain of the human enzyme (recombinant GST fusion protein expressed in E. coli)
T1 sequence (P04035 426-888 limits assumed): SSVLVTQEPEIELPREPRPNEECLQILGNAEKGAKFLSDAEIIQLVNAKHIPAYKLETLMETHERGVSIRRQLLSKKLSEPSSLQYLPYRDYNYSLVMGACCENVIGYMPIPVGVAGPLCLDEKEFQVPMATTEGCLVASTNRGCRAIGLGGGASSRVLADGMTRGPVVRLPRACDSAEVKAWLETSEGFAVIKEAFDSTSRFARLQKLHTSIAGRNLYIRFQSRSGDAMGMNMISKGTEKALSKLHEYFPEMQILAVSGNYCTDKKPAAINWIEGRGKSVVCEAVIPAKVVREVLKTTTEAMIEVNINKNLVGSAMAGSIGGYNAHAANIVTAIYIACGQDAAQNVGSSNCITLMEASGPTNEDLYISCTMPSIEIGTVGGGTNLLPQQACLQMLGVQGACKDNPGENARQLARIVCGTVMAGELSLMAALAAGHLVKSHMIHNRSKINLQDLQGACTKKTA
Test: spectrophotometric HMG-CoA reductase assay; Lineweaver-Burk and Dixon plots
Assay type: biochemical

CCCCCCCCCCCCCCCCCCO[C@H]1O[C@H](CO[C@H]2O[C@H](CO)[C@@H](O)[C@H](O)[C@H]2O)[C@@H](O)[C@H](O)[C@H]1O [F18, n-Octadecanyl-O-α-D-glucopyranosyl(6′ → 1″)-O-α-D-glucopyranoside]
pIC50: 6.85
